Patent publication US4161598A, “1-Oxygenated-2,6-methano-3-benzazocines” (Sterling Drug Inc., priority 1977, dated 1979)
Structures can show the parent of a compound that is named as a salt. Where two headings read alike, the source gives them in different places.

Tests used:
[1] = system: acetylcholine; assay: Anti-acetylcholine Writhing Test; type: in vivo, mice; settings: subcutaneous; for ED50: Mus musculus, sc, 20 min, read-out: Subcutaneous ED50 (95% Confidence Limits)
Procedure: This response has also been called writhing. Animals are pretreated with test compounds (20 minutes for both subcutaneous and oral routes) and observed for two minutes immediately following the administration of acetylcholine. Mice not responding during the two-minute observation period are scored protected while those responding one or more times are scored not protected. Test compounds are screened at doses of 75 and 25 mg./kg. subcutaneously or 150 and 50 mg./kg. orally. […] ED50 values for active compounds are estimated by probit analysis of quantal scores for 4 or more dosage levels using 15 animals per dose. Vehicle-pretreated control animals are tested concurrently with each run of 15 experimental animals.

[2] = system: phenazocine; assay: Tail-flick Antagonist Test against phenazocine; settings: for ED50: Rattus norvegicus, sc, 10 min, read-out: Subcutaneous AD50 (95% Confidence Limits) Against Phenazocine
[3] = system: meperidine; assay: Tail-flick Antagonist Test against meperidine; settings: Rattus norvegicus, sc, 10 min, read-out: Subcutaneous AD50 (95% Confidence Limits) Against Meperidine

CC(=O)Oc1ccc2c(c1)[C@]1(C)CCN(CC3CC3)[C@H](C2=O)[C@@H]1C (relative stereo) [Example 2, 1,2,3,4,5,6-hexahydro-1-oxo-3-cyclopropylmethyl-8-acetoxy-6(eq),11(ax)-dimethyl-2,6-methano-3-benzazocine hydrochloride]
ED50 ([1]; hydrochloride salt): 0.14 mg/kg | ED50 [2]: 3 mg/kg

CCC(=O)Oc1ccc2c(c1)[C@]1(C)CCN(CC3CC3)[C@H](C2=O)[C@@H]1C (relative stereo) [Example 3, 1,2,3,4,5,6-hexahydro-1-oxo-3-cyclopropylmethyl-8-propionyloxy-6(eq),11(ax)-dimethyl-2,6-methano-3-benzazocine hydrochloride]
% effect ([1]; 0.1 mg./kg.): 20% | % effect ([1]; 1 mg./kg.): 27% | % effect ([1]; 10 mg./kg.): 7% | % effect ([1]; 100 mg./kg.): 47% | ED50 [2]: 6 mg/kg

CCCC(=O)Oc1ccc2c(c1)[C@]1(C)CCN(CC3CC3)[C@H](C2=O)[C@@H]1C (relative stereo) [Example 4, 1,2,3,4,5,6-hexahydro-1-oxo-3-cyclopropylmethyl-8-butyryloxy-6(eq),11(ax)-dimethyl-2,6-methano-3-benzazocine hydrochloride]
ED50 ([1]; form tested not given): 0.14 mg/kg | ED50 [2]: 6.2 mg/kg

C[C@H]1[C@H]2C(=O)c3ccc(OC(=O)C(C)(C)C)cc3[C@]1(C)CCN2CC1CC1 (relative stereo) [Example 5, 1,2,3,4,5,6-hexahydro-1-oxo-3-cyclopropylmethyl-8-pivalyloxy-6(eq),11(ax)-dimethyl-2,6-methano-3-benzazocine]
ED50 ([1]; form tested not given): 0.06 mg/kg | ED50 [2]: 38 mg/kg

CC(C)C(=O)Oc1ccc2c(c1)[C@]1(C)CCN(CC3CC3)[C@H](C2=O)[C@@H]1C (relative stereo) [Example 6, 1,2,3,4,5,6-hexahydro-1-oxo-3-cyclopropylmethyl-8-isobutyryloxy-6(eq),11(ax)-dimethyl-2,6-methano-3-benzazocine]
ED50 ([1]; form tested not given): 0.09 mg/kg | ED50 [2]: 7 mg/kg

CC(C)CC(=O)Oc1ccc2c(c1)[C@]1(C)CCN(CC3CC3)[C@H](C2=O)[C@@H]1C (relative stereo) [Example 7, 1,2,3,4,5,6-hexahydro-1-oxo-3-cyclopropylmethyl-8-isovaleryloxy-6(eq),11(ax)-dimethyl-2,6-methano-3-benzazocine]
ED50 ([1]; form tested not given): 0.06 mg/kg | ED50 [2]: 5.2 mg/kg

C[C@H]1[C@H]2C(=O)c3ccc(OC(=O)CC(C)(C)C)cc3[C@]1(C)CCN2CC1CC1 (relative stereo) [Example 8, 1,2,3,4,5,6-hexahydro-1-oxo-3-cyclopropylmethyl-8-(3,3-dimethylbutanoyloxy)-6(eq),11(ax)-dimethyl-2,6-methano-3-benzazocine]
ED50 ([1]; form tested not given): 0.08 mg/kg

C[C@H]1[C@H]2C(=O)c3ccc(OC(=O)c4ccccc4)cc3[C@]1(C)CCN2CC1CC1 (relative stereo) [Example 9, 1,2,3,4,5,6-hexahydro-1-oxo-3-cyclopropylmethyl-8-benzoyloxy-6(eq),11(ax)-dimethyl-2,6-methano-3-benzazocine]
ED50 ([1]; form tested not given): 0.07 mg/kg | ED50 [2]: 14 mg/kg

COc1ccc(C(=O)Oc2ccc3c(c2)[C@]2(C)CCN(CC4CC4)[C@H](C3=O)[C@@H]2C)cc1 (relative stereo) [Example 10, 1,2,3,4,5,6-hexahydro-1-oxo-3-cyclopropylmethyl-8-(p-anisoyloxy)-6(eq),11(ax)-dimethyl-2,4-methano-3-benzazocine]
ED50 ([1]; form tested not given): 0.1 mg/kg

COc1cccc(C(=O)Oc2ccc3c(c2)[C@]2(C)CCN(CC4CC4)[C@H](C3=O)[C@@H]2C)c1 (relative stereo) [Example 11, 1,2,3,4,5,6-hexahydro-1-oxo-3-cyclopropylmethyl-8-(m-anisoyloxy)-6(eq),11(ax)-dimethyl-2,6-methano-3-benzazocine hydrochloride]
ED50 ([1]; form tested not given): 0.1 mg/kg

Cc1ccc(C(=O)Oc2ccc3c(c2)[C@]2(C)CCN(CC4CC4)[C@H](C3=O)[C@@H]2C)cc1 (relative stereo) [Example 12, 1,2,3,4,5,6-hexahydro-1-oxo-3-cyclopropylmethyl-8-(p-toluyloxy)-6(eq),11(ax)-dimethyl-2,6-methano-3-benzazocine]
ED50 ([1]; form tested not given): 0.06 mg/kg

C[C@H]1[C@H]2C(=O)c3ccc(OC(=O)c4ccc(C(F)(F)F)cc4)cc3[C@]1(C)CCN2CC1CC1 (relative stereo) [Example 13, 1,2,3,4,5,6-hexahydro-1-oxo-3-cyclopropylmethyl-8-(p-trifluoromethylbenzoyloxy)-6(eq),11(ax)-dimethyl-2,6-methano-3-benzazocine]
ED50 ([1]; form tested not given): 0.05 mg/kg

CCCN1CC[C@@]2(C)c3cc(O)ccc3C(=O)[C@@H]1[C@@H]2C (relative stereo) [Example 15, 1,2,3,4,5,6-hexahydro-1-oxo-3-propyl-8-hydroxy-6(eq),11(ax)-dimethyl-2,6-methano-3-benzazocine]
ED50 ([1]; form tested not given): 3.2 mg/kg | ED50 [2]: 2.8 mg/kg

C=CCN1CC[C@@]2(C)c3cc(O)ccc3C(=O)[C@@H]1[C@@H]2C (relative stereo) [Example 16, 1,2,3,4,5,6-hexahydro-1-oxo-3-allyl-8-hydroxy-6(eq),11(ax)-dimethyl-2,6-methano-3-benzazocine]
ED50 ([1]; form tested not given): 1.5 mg/kg | ED50 [2]: 2.2 mg/kg

C=CCN1CC[C@@]2(C)c3cc(O)ccc3[C@@H](O)[C@@H]1[C@@H]2C (relative stereo) [Example 17, 1,2,3,4,5,6-hexahydro-1(eq),8-dihydroxy-3-allyl-6(eq),11(ax)-dimethyl-2,6-methano-3-benzazocine]
ED50 ([1]; form tested not given): 4.8 mg/kg | ED50 [3]: 0.98 mg/kg

C[C@H]1[C@H]2[C@H](O)c3ccc(O)cc3[C@]1(C)CCN2CC1CC1 (relative stereo) [Example 18, 1,2,3,4,5,6-hexahydro-1(eq),8-dihydroxy-3-cyclopropylmethyl-6(eq), 11(ax)-dimethyl-2,6-methano-3-benzazocine hydrochloride]
ED50 ([1]; form tested not given): 10 mg/kg | ED50 [3]: 11 mg/kg

C[C@@H]1[C@H]2C(=O)c3ccc(O)cc3[C@]1(C)CCN2CC1CC1 (relative stereo) [Example 27, 1,2,3,4,5,6-hexahydro-1-oxo-3-cyclopropylmethyl-8-hydroxy-6(eq),11(eq)-dimethyl-2,6-methano-3-benzazocine hydrochloride hemiethanolate]
ED50 ([1]; form tested not given): 30 mg/kg | ED50 [2]: 2.8 mg/kg

CC[C@@]12CCN(CC3CC3)[C@@H](C1)C(=O)c1ccc(O)cc12 (relative stereo) [Example 28C, 1,2,3,4,5,6-hexahydro-1-oxo-3-cyclopropylmethyl-8-hydroxy-6(eq)-ethyl-2,6-methano-3-benzazocine hydrochloride]
ED50 ([1]; form tested not given): 0.38 mg/kg | ED50 [2]: 14 mg/kg

CC[C@]12CCN(CC3CC3)[C@H](C(=O)c3ccc(O)cc31)[C@H]2C (relative stereo) [Example 30C, 1,2,3,4,5,6-hexahydro-1-oxo-3-cyclopropylmethyl-8-hydroxy-6(eq)-ethyl-11(eq)-methyl-2,6-methano-3-benzazocine hydrochloride]
ED50 ([1]; form tested not given): 2.1 mg/kg | ED50 [2]: 4.2 mg/kg

CC[C@H]1[C@H]2C(=O)c3ccc(O)cc3[C@]1(CC)CCN2CC1CC1 (relative stereo) [Example 31C, 1,2,3,4,5,6-hexahydro-1-oxo-3-cyclopropylmethyl-8-hydroxy-6(eq),11(ax)-diethyl-2,6-methano-3-benzazocine]
ED50 ([1]; methanesulfonate salt): 0.15 mg/kg | ED50 [2]: 0.48 mg/kg

CCC[C@]12CCN(CC3CC3)[C@H](C(=O)c3ccc(O)cc31)[C@@H]2C (relative stereo) [Example 32C, 1,2,3,4,5,6-hexahydro-1-oxo-3-cyclopropylmethyl-8-hydroxy-6(eq)-propyl-11(ax)-methyl-2,6-methano-3-benzazocine]
ED50 ([1]; form tested not given): 1.5 mg/kg

CC[C@H]1[C@H]2C(=O)c3ccc(O)cc3[C@]1(C)CCN2CC1CC1 (relative stereo) [Example 33E, 1,2,3,4,5,6-hexahydro-1-oxo-3-cyclopropylmethyl-8-hydroxy-6(eq)-methyl-11-(ax)-ethyl-2,6-methano-3-benzazocine]
ED50 ([1]; form tested not given): 0.47 mg/kg | ED50 [2]: 0.17 mg/kg

CCCN1CC[C@@]2(CC)c3cc(O)ccc3C(=O)[C@@H]1[C@@H]2C (relative stereo) [Example 36, 1,2,3,4,5,6-hexahydro-3-propyl-1-oxo-8-hydroxy-6(eq)-ethyl-11(ax)-methyl-2,6-methano-3-benzazocine methanesulfonate]
ED50 ([1]; form tested not given): 1 mg/kg | ED50 [2]: 6.2 mg/kg

C=CCN1CC[C@@]2(CC)c3cc(O)ccc3C(=O)[C@@H]1[C@@H]2C (relative stereo) [Example 37, 1,2,3,4,5,6-hexahydro-3-allyl-1-oxo-8-hydroxy-6(eq)-ethyl-11(ax)-methyl-2,6-methano-3-benzazocine]
ED50 ([1]; form tested not given): 2.3 mg/kg | ED50 [2]: 6.3 mg/kg

C[C@H]1[C@H]2C(=O)c3ccc(O)cc3[C@]1(C)CCN2CC1CC1 [Example 26C, 2S,6R,11R-1,2,3,4,5,6-hexahydro-1-oxo-3-cyclopropylmethyl-8-hydroxy-6(eq),11(ax)-dimethyl-2,6-methano-3-benzazocine]
ED50 ([1]; methanesulfonate salt): 0.11 mg/kg | ED50 [2]: 2.4 mg/kg

C[C@@H]1[C@@H]2C(=O)c3ccc(O)cc3[C@@]1(C)CCN2CC1CC1 [Example 26D, dextro-rotatory 2S,6R,11R-1,2,3,4,5,6-hexahydro-1-oxo-3-cyclopropylmethyl-8-hydroxy-6(eq),11(ax)-dimethyl-2,6-methano-3-benzazocine]
% effect ([1]; 25 mg./kg., methanesulfonate salt): 33% | % effect ([1]; 75 mg./kg., methanesulfonate salt): 93% | narcotic antagonist effect against phenazocine ([2]; 10 mg./kg. subcutaneously, methanesulfonic salt, in words): inactive | % effect against phenazocine ([2]; 80 mg./kg. subcutaneously, methanesulfonic salt): 32%
